Assay results taken from ChEMBL document CHEMBL1201862, “PubChem BioAssay data set” (2004).
Each block holds one molecule with its values, some of them ahead of it. The source made the active and inactive calls.

How the values were obtained:
[1] = target: ATP-dependent molecular chaperone HSP82 (Candida albicans (strain WO-1) (Yeast), UniProt C4YTQ8); test: loss of DOC-induced GRE-beta-galactosidase reporter signal, dose response, Hsp90 inhibitor project, S. cerevisiae, luminescence (AID 2400); type: functional, cell-based;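 note: beta-galactosidase luminescence from glucocorticoid response element reporter as proxy for Hsp90 function; inhibitor potency where signal loss means Hsp90 inhibition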
ATP-dependent molecular chaperone HSP82, sequence (C4YTQ8 whole entry): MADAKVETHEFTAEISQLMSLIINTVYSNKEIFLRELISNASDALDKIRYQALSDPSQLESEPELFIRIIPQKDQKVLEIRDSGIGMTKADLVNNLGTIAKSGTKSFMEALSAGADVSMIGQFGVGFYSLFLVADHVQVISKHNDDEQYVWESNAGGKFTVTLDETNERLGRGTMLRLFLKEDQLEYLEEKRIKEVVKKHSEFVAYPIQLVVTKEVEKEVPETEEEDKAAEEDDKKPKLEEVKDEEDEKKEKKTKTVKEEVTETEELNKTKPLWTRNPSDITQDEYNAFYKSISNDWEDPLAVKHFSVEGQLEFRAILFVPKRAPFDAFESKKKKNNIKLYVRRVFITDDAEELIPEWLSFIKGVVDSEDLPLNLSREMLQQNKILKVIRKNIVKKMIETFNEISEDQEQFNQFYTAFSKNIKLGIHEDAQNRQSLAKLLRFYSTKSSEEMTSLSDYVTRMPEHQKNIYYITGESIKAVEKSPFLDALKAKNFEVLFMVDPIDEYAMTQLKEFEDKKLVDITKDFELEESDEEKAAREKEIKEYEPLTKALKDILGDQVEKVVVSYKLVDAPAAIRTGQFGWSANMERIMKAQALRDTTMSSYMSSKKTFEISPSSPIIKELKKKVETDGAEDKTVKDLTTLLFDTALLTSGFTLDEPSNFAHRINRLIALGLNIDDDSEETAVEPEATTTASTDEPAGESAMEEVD

[2] = Artemis endonuclease inhibitor potency, dose response, biochemical, fluorescence intensity (AID 720701); type: functional;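 note: Artemis endonuclease enzyme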
Vero = Vero cell cytotoxicity, cytotoxicity control for flavivirus capping enzyme inhibitors (AID 588742); type: functional; conditions: Chlorocebus sabaeus
Genome polyprotein = Genome polyprotein (dengue virus type 2, UniProt P29990); test: Dengue-2 NS5 methyltransferase inhibitors, primary screen, biochemical, confirmation dose response (AID 588689); type: functional
Genome polyprotein, sequence (P29990 2492-3391 limits assumed): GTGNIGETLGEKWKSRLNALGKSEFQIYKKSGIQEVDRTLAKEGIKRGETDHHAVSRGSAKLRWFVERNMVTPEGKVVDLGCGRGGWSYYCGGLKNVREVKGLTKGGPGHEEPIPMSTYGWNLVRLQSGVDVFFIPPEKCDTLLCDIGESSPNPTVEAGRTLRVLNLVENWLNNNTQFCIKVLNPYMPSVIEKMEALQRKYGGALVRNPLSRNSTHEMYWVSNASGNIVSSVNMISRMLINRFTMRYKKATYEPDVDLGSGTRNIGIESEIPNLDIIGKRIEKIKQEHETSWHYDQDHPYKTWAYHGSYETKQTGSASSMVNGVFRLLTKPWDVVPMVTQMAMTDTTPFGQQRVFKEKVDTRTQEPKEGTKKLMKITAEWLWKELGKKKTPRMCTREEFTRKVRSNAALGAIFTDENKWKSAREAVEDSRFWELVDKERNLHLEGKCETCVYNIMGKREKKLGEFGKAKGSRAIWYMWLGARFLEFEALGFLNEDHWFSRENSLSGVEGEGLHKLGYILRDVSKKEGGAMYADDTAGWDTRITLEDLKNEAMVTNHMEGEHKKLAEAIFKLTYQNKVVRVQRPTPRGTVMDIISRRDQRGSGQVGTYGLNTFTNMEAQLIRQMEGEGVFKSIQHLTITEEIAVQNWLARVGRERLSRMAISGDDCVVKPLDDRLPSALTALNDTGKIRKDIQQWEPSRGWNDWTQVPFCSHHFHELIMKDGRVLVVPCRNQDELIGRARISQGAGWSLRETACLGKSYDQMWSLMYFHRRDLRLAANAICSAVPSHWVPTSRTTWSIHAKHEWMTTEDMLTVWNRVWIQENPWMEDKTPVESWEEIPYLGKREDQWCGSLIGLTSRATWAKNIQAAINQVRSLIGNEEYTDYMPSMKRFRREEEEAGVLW

HEK293 = test: HEK cell cytotoxicity by LDH release, dose response, cytotoxicity control for IDE activator project, fluorescence, HEK cells (AID 588440); type: functional, cell-based; conditions: Homo sapiens;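 note: cytotoxicity by LDH release measuring loss of membrane integrity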
Insulin-degrading enzyme = target: T1, Insulin-degrading enzyme (Homo sapiens, UniProt P14735); test: activators of recombinant IDE enzyme, dose response, counter-screen for IDE activator project, biochemical, fluorescence polarization (AID 588681)
T1 sequence (P14735 whole entry): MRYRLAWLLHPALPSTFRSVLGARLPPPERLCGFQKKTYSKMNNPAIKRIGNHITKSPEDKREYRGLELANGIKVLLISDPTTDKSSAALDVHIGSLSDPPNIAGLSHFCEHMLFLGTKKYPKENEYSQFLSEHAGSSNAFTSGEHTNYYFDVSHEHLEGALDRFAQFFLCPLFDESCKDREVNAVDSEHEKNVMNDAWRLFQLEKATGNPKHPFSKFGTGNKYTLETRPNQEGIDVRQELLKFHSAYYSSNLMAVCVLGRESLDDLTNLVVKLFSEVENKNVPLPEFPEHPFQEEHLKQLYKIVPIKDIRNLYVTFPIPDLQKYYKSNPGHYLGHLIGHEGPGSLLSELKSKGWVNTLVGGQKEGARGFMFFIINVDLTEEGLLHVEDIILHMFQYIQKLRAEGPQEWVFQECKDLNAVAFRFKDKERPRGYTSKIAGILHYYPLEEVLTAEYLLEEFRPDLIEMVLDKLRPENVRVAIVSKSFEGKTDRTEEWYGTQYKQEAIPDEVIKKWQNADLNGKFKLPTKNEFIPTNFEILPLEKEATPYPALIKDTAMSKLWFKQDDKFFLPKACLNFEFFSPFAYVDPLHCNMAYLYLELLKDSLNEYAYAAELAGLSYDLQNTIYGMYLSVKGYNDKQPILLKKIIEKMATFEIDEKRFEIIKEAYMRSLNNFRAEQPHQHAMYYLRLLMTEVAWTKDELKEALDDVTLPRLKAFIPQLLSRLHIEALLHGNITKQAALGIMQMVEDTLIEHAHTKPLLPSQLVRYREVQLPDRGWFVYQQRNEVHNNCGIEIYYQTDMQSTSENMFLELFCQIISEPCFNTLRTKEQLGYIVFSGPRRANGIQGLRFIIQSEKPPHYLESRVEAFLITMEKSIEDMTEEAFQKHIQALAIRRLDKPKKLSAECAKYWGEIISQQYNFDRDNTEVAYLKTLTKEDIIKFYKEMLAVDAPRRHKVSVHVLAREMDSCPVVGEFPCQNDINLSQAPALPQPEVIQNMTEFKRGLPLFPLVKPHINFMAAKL

CAAX prenyl protease 2 = target: T2, CAAX prenyl protease 2 (Homo sapiens, UniProt Q9Y256); test: human Rce1 protease inhibitors, dose response, biochemical, yeast membranes, quenched-peptide fluorescence, cherry-pick (AID 588849)
T2 sequence (Q9Y256 whole entry): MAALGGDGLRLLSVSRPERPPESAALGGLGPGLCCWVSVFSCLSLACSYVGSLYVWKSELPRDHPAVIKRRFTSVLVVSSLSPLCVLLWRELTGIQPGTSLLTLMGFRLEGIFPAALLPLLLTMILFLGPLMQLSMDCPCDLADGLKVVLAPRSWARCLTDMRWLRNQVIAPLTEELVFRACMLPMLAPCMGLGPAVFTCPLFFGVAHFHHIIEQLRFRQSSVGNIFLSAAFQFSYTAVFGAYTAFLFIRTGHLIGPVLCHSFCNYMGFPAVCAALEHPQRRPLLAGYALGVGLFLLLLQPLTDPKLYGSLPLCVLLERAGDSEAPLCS

[3] = HEK293T cytotoxicity, dose response, cytotoxicity control for miR-122 modulator project, cell-based, activator set, cherry-pick (AID 720690); type: functional;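 note: HEK293T human cells scored for general mammalian cytotoxicity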
[4] = HepG2 cell cytotoxicity, dose response, cytotoxicity control for Shn3 inhibitor project, CellTiter-Glo, cherry-picked (AID 624134); type: functional, cell-based
[5] = target: Calcium/calmodulin-dependent protein kinase type II subunit delta (Homo sapiens, UniProt Q13557); type: functional
Calcium/calmodulin-dependent protein kinase type II subunit delta, sequence (Q13557 whole entry): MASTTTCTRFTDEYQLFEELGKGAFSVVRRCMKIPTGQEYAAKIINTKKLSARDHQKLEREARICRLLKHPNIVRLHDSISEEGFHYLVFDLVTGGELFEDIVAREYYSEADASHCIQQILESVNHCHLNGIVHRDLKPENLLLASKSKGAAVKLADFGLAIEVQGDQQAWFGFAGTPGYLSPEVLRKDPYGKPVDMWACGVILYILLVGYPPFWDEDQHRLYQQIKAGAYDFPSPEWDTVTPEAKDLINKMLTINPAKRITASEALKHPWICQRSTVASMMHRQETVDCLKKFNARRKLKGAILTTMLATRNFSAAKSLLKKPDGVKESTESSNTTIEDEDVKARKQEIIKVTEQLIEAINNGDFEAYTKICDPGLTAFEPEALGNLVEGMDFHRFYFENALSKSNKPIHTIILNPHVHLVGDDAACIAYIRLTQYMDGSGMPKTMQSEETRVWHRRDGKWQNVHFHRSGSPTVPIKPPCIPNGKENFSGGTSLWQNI

[6] = target: Serine/threonine-protein kinase Nek2 (Homo sapiens, UniProt P51955); type: functional
Serine/threonine-protein kinase Nek2, sequence (P51955 whole entry): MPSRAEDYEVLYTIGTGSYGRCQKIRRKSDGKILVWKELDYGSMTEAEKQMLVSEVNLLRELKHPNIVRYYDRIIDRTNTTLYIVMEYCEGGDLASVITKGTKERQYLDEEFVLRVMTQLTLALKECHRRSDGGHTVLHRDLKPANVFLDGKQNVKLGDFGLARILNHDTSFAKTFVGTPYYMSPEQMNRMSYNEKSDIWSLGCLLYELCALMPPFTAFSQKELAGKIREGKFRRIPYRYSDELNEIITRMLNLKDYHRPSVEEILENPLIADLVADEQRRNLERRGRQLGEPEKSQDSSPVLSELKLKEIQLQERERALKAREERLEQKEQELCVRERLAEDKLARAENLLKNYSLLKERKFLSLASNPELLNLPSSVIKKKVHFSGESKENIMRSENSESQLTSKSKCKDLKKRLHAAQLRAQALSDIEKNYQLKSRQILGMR

[7] = target: T3, Sentrin-specific protease 7 (Homo sapiens, UniProt Q9BQF6); type: functional;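 note: Luminescence-based dose-response confirmation of ultra-high-throughput screening hits, measuring inhibition of SENP7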
T3 sequence (Q9BQF6 whole entry): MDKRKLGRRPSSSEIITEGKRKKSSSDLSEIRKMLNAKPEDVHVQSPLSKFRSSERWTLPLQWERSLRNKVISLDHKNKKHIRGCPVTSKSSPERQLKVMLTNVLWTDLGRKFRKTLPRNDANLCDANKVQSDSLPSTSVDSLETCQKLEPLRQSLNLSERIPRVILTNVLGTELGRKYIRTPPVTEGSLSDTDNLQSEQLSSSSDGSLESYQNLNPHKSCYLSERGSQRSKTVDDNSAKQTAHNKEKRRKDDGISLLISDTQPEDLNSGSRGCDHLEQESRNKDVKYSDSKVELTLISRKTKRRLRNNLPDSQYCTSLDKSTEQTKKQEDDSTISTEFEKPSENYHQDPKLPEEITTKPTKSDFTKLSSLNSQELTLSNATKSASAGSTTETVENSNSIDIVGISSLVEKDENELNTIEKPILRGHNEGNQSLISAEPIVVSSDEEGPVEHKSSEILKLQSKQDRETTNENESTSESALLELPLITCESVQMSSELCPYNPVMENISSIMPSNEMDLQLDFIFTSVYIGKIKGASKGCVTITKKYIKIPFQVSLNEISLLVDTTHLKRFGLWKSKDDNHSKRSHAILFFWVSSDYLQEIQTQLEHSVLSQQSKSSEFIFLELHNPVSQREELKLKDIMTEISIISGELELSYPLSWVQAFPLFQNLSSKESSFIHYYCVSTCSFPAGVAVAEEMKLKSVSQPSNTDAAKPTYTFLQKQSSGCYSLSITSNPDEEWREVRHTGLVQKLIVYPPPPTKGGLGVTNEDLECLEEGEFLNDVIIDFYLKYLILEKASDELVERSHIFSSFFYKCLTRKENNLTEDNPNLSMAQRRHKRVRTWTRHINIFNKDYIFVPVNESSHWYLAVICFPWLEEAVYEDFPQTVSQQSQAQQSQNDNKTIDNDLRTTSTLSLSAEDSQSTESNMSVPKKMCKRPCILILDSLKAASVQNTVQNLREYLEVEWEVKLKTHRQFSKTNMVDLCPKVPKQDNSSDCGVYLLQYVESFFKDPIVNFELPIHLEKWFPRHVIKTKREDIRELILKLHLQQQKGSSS

SMILES: CC(C)CC(=O)NC(c1cccs1)c1ccc2cccnc2c1O (stereo not drawn)
EC50 [1]: > 150 µM (inactive)

SMILES: CCOC(=O)c1ccc(NC2=CC(=O)C(=O)c3ccccc32)cc1
IC50 [2]: 2.6 µM (active)
CC50 (Vero): 22.3 µM (active)
IC50 (Genome polyprotein): > 100 µM (active)

SMILES: OC(CNCCC1C=Nc2ccccc21)Cn1c2ccc(Cl)cc2c2cc(Cl)ccc21 (stereo not drawn)
IC50 (HEK293): 10.2 µM (inactive)
EC50 (Insulin-degrading enzyme): > 54.7 µM (inactive)
AC50 (CAAX prenyl protease 2): 79.3 µM (active)
AC50 [3]: 6.52 µM (active)
AC50 [4]: 9.39 µM (active)

Ki [5]: 251 nM (active)
pKi [5]: 6.6
SMILES: NC1CCC(Nc2nc(Cl)cc(-c3c[nH]c4ncccc34)n2)CC1 (stereo not drawn)

Ki [6]: > 3.16 µM (inactive)
SMILES: O=C(O)C1CN(Cc2ccc(OCc3ccccc3)cc2Cl)C1

IC50 [7]: 1.67 µM (active)
SMILES: COc1ccc(C(=O)c2nccc3cc(OC)c(OC)cc23)cc1OC
